Consider eight compounds from US9512087B2, “Hybrid molecules containing pharmacophores of fluconazole as antifungal agents and their preparation” (Council for Scientific & Industrial Research, priority 2011, dated 2016).

Structures are written as SMILES. In brackets after ≈: the same amount, converted by molar mass.

What all share (experiment): Antifungal MIC, broth dilution
One assay has as its system C. albicans ATCC 24433. Type of assay: cell-based, Candida albicans. To be noted: Candida albicans, ATCC24433, RPMI 1640 with MOPS, end point 48 hours; for MIC80: read-out: Ca01 A: MIC80; for MIC50: read-out: Ca01 B: MIC50. As for the experimental part: (§1) The compounds of Formula 1 were tested for antifungal activity against Candida albicans, Aspergillus niger and Fusarium proliferatum. In vitro evaluation of antifungal activity was performed by determining the minimum inhibitory concentration (MIC) following standard methods (CLSI: Reference method for broth dilution antifungal susceptibility testing of yeasts; Approved standard, second edition M27-A2, 2002; CLSI: Reference method for broth dilution antifungal susceptibility testing of filamentous fungi; Approved standard M38-A, 2002). Anti-fungal susceptibility testing of these anti-fungal compounds was done by broth dilution method using RPMI 1640 medium with MOPS buffer. Known anti-fungal agents like fluconazole and amphotericin-B were used as positive control. End points were determined after 48 hours visually and by using spectrophotometer wherever necessary. Different dilutions were tried and various sets of experiments performed. The activity parameters are enumerated in Table 5.

A further assay has as its system C. glabrata ATCC 90030. The assay is classed as cell-based. To be noted: Nakaseomyces glabratus, ATCC90030, RPMI 1640 with MOPS, end point 48 hours, read-out: Cg01 MIC50.
In a further assay the test system is C. krusei ATCC 6258. The assay is classed as cell-based. To be noted: Pichia kudriavzevii, ATCC6258, RPMI 1640 with MOPS, end point 48 hours, read-out: Ck01 MIC50.
The test system of the next assay is C. tropicalis ATCC 750. Type of assay: cell-based. To be noted: Candida tropicalis, ATCC750, RPMI 1640 with MOPS, end point 48 hours, read-out: Ct01 MIC50.
The test system of a further assay is C. neoformans ATCC 34664. The assay is classed as cell-based. The conditions noted are these: Cryptococcus neoformans, ATCC34664, RPMI 1640 with MOPS, end point 48 hours, read-out: Cn01 MIC50.
In another assay the test system is A. niger ATCC 16404. Type of assay: cell-based, Aspergillus niger. To be noted: Aspergillus niger, ATCC16404, RPMI 1640 with MOPS, end point 48 hours, read-out: An01 MIC50. As for the experimental part: as §1
The next assay concerns A. fumigatus ATCC 46645. The assay is classed as cell-based. To be noted: Aspergillus fumigatus, ATCC46645, RPMI 1640 with MOPS, end point 48 hours, read-out: Afm01 MIC50.
Assay [1] deals with F. proliferatum ATCC 10052. Type of assay: cell-based, Fusarium proliferatum. The conditions noted are these: Fusarium proliferatum, ATCC10052, RPMI 1640 with MOPS, end point 48 hours, read-out: Fp01 MIC50. The method, then: as §1

On to `O=C(c1ccc(OCC(O)(Cn2cncn2)c2ccc(F)cc2F)cc1)C1OC1c1ccc(Cl)cc1Cl` (stereo not drawn) [Compound 1B-2, (3-(2,4-dichlorophenyl)oxiran-2-yl) (4-(2-(2,4-difluorophenyl)-2-hydroxy-3-(1H-1,2,4-triazol-1-yl)propoxy)phenyl)methanone], for which the MIC80 in the assay on C. albicans ATCC 24433 turned out to be 0.5 µg/mL (≈ 0.915 µM). Moreover, the MIC50 in the assay with C. albicans ATCC 24433 is 0.5 µg/mL (≈ 0.915 µM); in the assay with C. glabrata ATCC 90030, 0.5 µg/mL (≈ 0.915 µM); in the assay with C. krusei ATCC 6258, 4 µg/mL (≈ 7.32 µM); with C. tropicalis ATCC 750 it was 1 µg/mL (≈ 1.83 µM); with C. neoformans ATCC 34664 it was 1 µg/mL (≈ 1.83 µM); in the assay with A. niger ATCC 16404, over 4 µg/mL. For the same compound, the MIC50 (with A. fumigatus ATCC 46645; in assay [1]) was over 4 µg/mL each time.

Consider `OC(/C=C/c1ccc(Cl)cc1Cl)c1ccc(OCC(O)(Cn2cncn2)c2ccc(F)cc2F)cc1` (stereo not drawn) [Compound 1C-1, (E)-3-(2,4-dichlorophenyl)-1-(4-(2-(2,4-difluorophenyl)-2-hydroxy-3-(1H-1,2,4-triazol-1-yl)propoxy)phenyl)prop-2-en-1-ol], for which, in the assay on C. albicans ATCC 24433, the MIC80 came out at 0.5 µg/mL (≈ 0.939 µM). Also, the MIC50 with C. albicans ATCC 24433 is 0.5 µg/mL (≈ 0.939 µM); in the assay with C. glabrata ATCC 90030, 0.25 µg/mL (≈ 0.47 µM); in the assay on C. krusei ATCC 6258 it was 4 µg/mL (≈ 7.51 µM); in the assay on C. tropicalis ATCC 750, 1 µg/mL (≈ 1.88 µM); in the assay with C. neoformans ATCC 34664 it was 0.5 µg/mL (≈ 0.939 µM); in the assay on A. niger ATCC 16404, over 4 µg/mL. Moreover, the MIC50 (in the assay on A. fumigatus ATCC 46645; in assay [1]) was over 4 µg/mL each time.

In the case of `OC(COc1ccc(-c2cc(-c3ccc(Cl)cc3Cl)[nH]n2)cc1)(Cn1cncn1)c1ccc(F)cc1F` (stereo not drawn) [Compound 1D-1, 1-(4-(5-(2,4-dichlorophenyl)-1H-pyrazol-3-yl)phenoxy)-2-(2,4-difluorophenyl)-3-(1H-1,2,4-triazol-1-yl)propan-2-ol], the MIC80 in the assay on C. albicans ATCC 24433 worked out at 0.5 µg/mL (≈ 0.922 µM). In addition, the MIC50 with C. albicans ATCC 24433 was 0.5 µg/mL (≈ 0.922 µM); in the assay with C. glabrata ATCC 90030 it was 1 µg/mL (≈ 1.84 µM); in the assay with C. krusei ATCC 6258 it was 2 µg/mL (≈ 3.69 µM); in the assay with C. tropicalis ATCC 750 it was 0.5 µg/mL (≈ 0.922 µM); in the assay on C. neoformans ATCC 34664, 1 µg/mL (≈ 1.84 µM); in the assay on A. niger ATCC 16404, over 4 µg/mL. Besides, the MIC50 (with A. fumigatus ATCC 46645; in assay [1]) was over 4 µg/mL throughout.

On to `OC(COc1ccc(C2=NNC(c3ccc(Cl)cc3Cl)C2)cc1)(Cn1cncn1)c1ccc(F)cc1F` (stereo not drawn) [Compound 1E-1, 1-(4-(5-(2,4-dichlorophenyl)-4,5-dihydro-1H-pyrazol-3-yl)phenoxy)-2-(2,4-difluorophenyl)-3-(1H-1,2,4-triazol-1-yl)propan-2-ol], for which the MIC80 with C. albicans ATCC 24433 came out at 0.25 µg/mL (≈ 0.459 µM). The MIC50 in the assay on C. albicans ATCC 24433 is 0.25 µg/mL (≈ 0.459 µM); in the assay on C. glabrata ATCC 90030 it was 2 µg/mL (≈ 3.67 µM); with C. krusei ATCC 6258, over 8 µg/mL; with C. tropicalis ATCC 750 it was 1 µg/mL (≈ 1.84 µM); with C. neoformans ATCC 34664, 2 µg/mL (≈ 3.67 µM); in the assay on A. niger ATCC 16404, over 8 µg/mL. Besides, the MIC50 (with A. fumigatus ATCC 46645; in assay [1]) was over 8 µg/mL each time.

Consider `OC(Cn1cncn1)(Cn1cncn1)c1ccc(F)cc1F` [FLU, fluconazole], for which, in the assay with C. albicans ATCC 24433, the MIC80 was 1 µg/mL (≈ 3.27 µM). The MIC50 was 0.25 µg/mL (≈ 0.816 µM) in the assay with C. albicans ATCC 24433; 1 µg/mL (≈ 3.27 µM) in the assay on C. glabrata ATCC 90030; 32 µg/mL (≈ 104 µM) in the assay with C. krusei ATCC 6258; 1 µg/mL (≈ 3.27 µM) in the assay with C. tropicalis ATCC 750; 2 µg/mL (≈ 6.53 µM) in the assay on C. neoformans ATCC 34664; over 128 µg/mL with A. niger ATCC 16404. For the same compound, the MIC50 (in the assay on A. fumigatus ATCC 46645; in assay [1]) was over 128 µg/mL each time.

With `COc1ccc(/C=C/C(=O)c2ccc(OC[C@](O)(Cn3cncn3)c3ccc(F)cc3F)cc2)cc1` [R-(−)-1A-2], the MIC80 in the assay on C. albicans ATCC 24433 is 0.12 µg/mL (≈ 0.244 µM). Besides, the MIC50 was found to be 0.06 µg/mL (≈ 0.122 µM) in the assay with C. albicans ATCC 24433; 0.06 µg/mL (≈ 0.122 µM) in the assay on C. glabrata ATCC 90030; 2 µg/mL (≈ 4.07 µM) in the assay on C. krusei ATCC 6258; 0.25 µg/mL (≈ 0.509 µM) in the assay on C. tropicalis ATCC 750; 0.5 µg/mL (≈ 1.02 µM) in the assay with C. neoformans ATCC 34664; 2 µg/mL (≈ 4.07 µM) in the assay with A. niger ATCC 16404. Also, the MIC50 (with A. fumigatus ATCC 46645; in assay [1]) was over 4 µg/mL each time.

Take `O=C(/C=C/c1ccc(Cl)cc1)c1ccc(OC[C@](O)(Cn2cncn2)c2ccc(F)cc2F)cc1` [R-(−)-1A-6, R-(−)-(E)-3-(4-chlorophenyl)-1-(4-(2-(2,4-difluorophenyl)-2-hydroxy-3-(1H-1,2,4-triazol-1-yl)propoxy)phenyl)prop-2-en-1-one]: the MIC80 in the assay with C. albicans ATCC 24433 was 0.12 µg/mL (≈ 0.242 µM). Further, the MIC50 with C. albicans ATCC 24433 is 0.06 µg/mL (≈ 0.121 µM); in the assay on C. glabrata ATCC 90030 it was 0.12 µg/mL (≈ 0.242 µM); in the assay with C. krusei ATCC 6258, 1 µg/mL (≈ 2.02 µM); in the assay with C. tropicalis ATCC 750 it was 0.5 µg/mL (≈ 1.01 µM); in the assay with C. neoformans ATCC 34664 it was 0.25 µg/mL (≈ 0.504 µM); in the assay on A. niger ATCC 16404 it was over 4 µg/mL. Further, the MIC50 (in the assay with A. fumigatus ATCC 46645; in assay [1]) was over 4 µg/mL throughout.

As for `O=C(/C=C/c1cccs1)c1ccc(OC[C@](O)(Cn2cncn2)c2ccc(F)cc2F)cc1` [R-(−)-1A-13], the MIC80 in the assay on C. albicans ATCC 24433 stood at 0.12 µg/mL (≈ 0.257 µM). Further, the MIC50 in the assay on C. albicans ATCC 24433 is 0.03 µg/mL (≈ 0.0642 µM); in the assay with C. glabrata ATCC 90030, 0.03 µg/mL (≈ 0.0642 µM); in the assay with C. krusei ATCC 6258, 2 µg/mL (≈ 4.28 µM); with C. tropicalis ATCC 750, 0.12 µg/mL (≈ 0.257 µM); in the assay with C. neoformans ATCC 34664, 0.5 µg/mL (≈ 1.07 µM); in the assay with A. niger ATCC 16404 it was over 4 µg/mL. For the same compound, the MIC50 (in the assay on A. fumigatus ATCC 46645; in assay [1]) was over 4 µg/mL throughout.
